How the values were obtained:
[1] = test system: Candida albicans (C. albicans 702); test: Test 1: growth of Candida albicans in extracellular product of LB 931 with additives, micro titre plate, visual turbidity; format: cell-based; conditions: additive 50 mM in combination with extracellular product of LB 931, pH 3.4±0.2, 37° C. 24 hrs
Experimental: The purpose of this test was to determine whether selected additives affect the growth of Candida albicans and if an improved growth inhibition can be achieved when they are added to the extracellular products of Lactobacillus plantarum, LB 931. The additives used in this test were ascorbic acid, citric acid, phenylalanine, acetic acid, propionic acid and sodium propionate.
A clinical isolate of Candida albicans (designated C. albicans 702) was used as test strain. It was isolated from the vagina of a person with vaginal candidiasis.
As control pure dMRSs broth (MRS broth without addition of sodium acetate) was used. A specified volume was transferred to wells of a micro titre plate and was let to air dry (45° C. minimum of 20 hrs).
Cultures of LB 931 grown in dMRSs broth were centrifuged to pellet the cells and sterile filtered using a 0,22 μm filter (MILLIPORE filter, Bedford, USA) in order to obtain the LB 931 supernatant com prising the LB 931 extracell War product. […]
The test was blinded so that there could be no preconceived opinions colouring the results. The inhibition of Candida was evaluated and graduated, by two persons using a template, on a scale from five to zero based on visual observations of turbidity with a calculated mean value being presented. […]

Candida albicans = test: Test 3: growth of Candida albicans in extracellular product of Ess-1 combined with additive, visual turbidity; format: cell-based; conditions: additive 50 mM combined with supernatant from Ess-1, pH adjusted to pKa of the acid, 20 hours 37° C.
Experimental: Ess-1 was grown to stationary phase in dMRSs broth (MRS broth without addition of sodium acetate). The bacterial culture was centrifuged to pellet the cells and sterile filtered using a 0,22 μm filter (MILLIPORE filter, Bedford, USA) whereupon the supernatant comprising the extracellular product was obtained. […] Wells containing strong growth of Candida in pure dMRSs-broth was graduated as five, while wells with no visual growth were graduated as zero.

Compound | growth inhibiting effect on Candida (growth graded five to zero by turbidity) [1] | inhibition of Candida albicans (Candida albicans)
CCC(=O)O [propionic acid] | no growth at all | –
O=C1O[C@H]([C@@H](O)CO)C(O)=C1O [ascorbic acid] | – | increased inhibition

— US9125768B2, “Hygiene tissue comprising a microbe-inhibiting composition” (SCA HYGIENE PRODUCTS AB, priority 2006, dated 2015)
